Here are results for three compounds from patent US6472563B1, “Formoterol tartrate process and polymorph” (Sepracor Inc., priority 2001, dated 2002).

Structures are written as SMILES.

For data set [1] the following is noted: factor; cited from earlier work.
The nature of data set [2]: Dissolution studies: 17 wt % slurry in 50% aqueous isopropyl alcohol stirred with warming. The format is physicochemical. The settings on record: listed as form A.
Protocol: Dissolution studies were done on each polymorph. A 17 wt % slurry of the respective solid in 50% aqueous isopropyl alcohol was stirred with warming, and the temperature of dissolution was recorded.
For data set [3] the following is noted: compared to other salts of R,R-formoterol; cited from earlier work.

Turning to `CCCCCCCCCCCCCCCC(=O)OC[C@@H](NC(=O)C(Cl)Cl)[C@H](O)c1ccc([N+](=O)[O-])cc1` [Chloramphenicol-3-palmitate], in data set [1], the “difference in bio-activity between form A and form B” value is “eight”.

As to `COc1ccc(C[C@@H](C)NC[C@H](O)c2ccc(O)c(NC=O)c2)cc1.O=C(O)C(O)C(O)C(=O)O` [Polymorph A, (R,R)-formoterol L-tartrate], the temperature of dissolution in data set [2] was 65-70 °C. As for `COc1ccc(C[C@@H](C)NC[C@H](O)c2ccc(O)c(NC=O)c2)cc1.O=C(O)C(O)C(O)C(=O)O` [L-(+)-tartrate salt of R,R-formoterol, (R,R)-formoterol L-tartrate], in data set [3], the hygroscopicity result is listed as “non-hygroscopic”.
